# Reference: ChEMBL document CHEMBL1123592, “Cluster significance analysis contrasted with three other quantitative structure-activity relationship methods” (J Med Chem, 1987)
# Legend:
# [1] = Dissociation constant was determined; assay type: physicochemical
# [2] = Partition coefficient (logP); assay type: physicochemical; details: octanol/water
# [3] = In vitro antibacterial activity was determined; assay type: functional
# [4] = In vitro antibacterial activity was determined; antibacterial potency is less than 50% of that of lasalocid; assay type: functional
Compound,pKa [1],logP [2],Activity [3],Activity [4]
CC[C@@H](C(=O)[C@@H](C)[C@@H](O)[C@H](C)CCc1c(Br)cc(C)c(O)c1C(=O)O)[C@H]1O[C@](CC)([C@H]2CC[C@](O)(CC)[C@H](C)O2)C[C@@H]1C [BROMOLASALOCID],3.9,3.25,1,
CC[C@@H](C(=O)[C@@H](C)[C@@H](O)[C@H](C)CCc1ccc(C)c(OC(=O)c2ccc(Br)cc2)c1C(=O)O)[C@H]1O[C@](CC)([C@H]2CC[C@](O)(CC)[C@H](C)O2)C[C@@H]1C,,3.48,,0
CCCCCCCCCC(=O)Oc1c(C)ccc(CC[C@@H](C)[C@H](O)[C@H](C)C(=O)[C@H](CC)[C@H]2O[C@](CC)([C@H]3CC[C@](O)(CC)[C@H](C)O3)C[C@@H]2C)c1C(=O)O,,2.75,,0
CC[C@@H](C(=O)[C@@H](C)[C@@H](O)[C@H](C)CCc1c(Cl)cc(C)c(O)c1C(=O)O)[C@H]1O[C@](CC)([C@H]2CC[C@](O)(CC)[C@H](C)O2)C[C@@H]1C [CHLOROLASALOCID],4,3.12,1,
CCCCCCCC(=O)Oc1c(C)ccc(CC[C@@H](C)[C@H](O)[C@H](C)C(=O)[C@H](CC)[C@H]2O[C@](CC)([C@H]3CC[C@](O)(CC)[C@H](C)O3)C[C@@H]2C)c1C(=O)O,,2.21,,0
CC[C@@H](C(=O)[C@@H](C)[C@@H](O)[C@H](C)CCc1c(N)cc(C)c(O)c1C(=O)O)[C@H]1O[C@](CC)([C@H]2CC[C@](O)(CC)[C@H](C)O2)C[C@@H]1C [AMINOLASALOCID],6,0.28,,0
CC[C@@H](C(=O)[C@@H](C)[C@@H](O)[C@H](C)CCc1c(/N=C/c2ccccc2)cc(C)c(O)c1C(=O)O)[C@H]1O[C@](CC)([C@H]2CC[C@](O)(CC)[C@H](C)O2)C[C@@H]1C,,0.86,,0
CCCCC(=O)Oc1c(C)ccc(CC[C@@H](C)[C@H](O)[C@H](C)C(=O)[C@H](CC)[C@H]2O[C@](CC)([C@H]3CC[C@](O)(CC)[C@H](C)O3)C[C@@H]2C)c1C(=O)O,,2.08,,0
CC[C@@H](C(=O)[C@@H](C)[C@@H](O)[C@H](C)CCc1c([N+]#N)cc(C)c(O)c1C(=O)O)[C@H]1O[C@](CC)([C@H]2CC[C@](O)(CC)[C@H](C)O2)C[C@@H]1C [DIAZOLASALOCID],6.6,,,0
CC[C@@H](C(=O)[C@@H](C)[C@@H](O)[C@H](C)CCc1c(I)cc(C)c(O)c1C(=O)O)[C@H]1O[C@](CC)([C@H]2CC[C@](O)(CC)[C@H](C)O2)C[C@@H]1C [IODOLASALOCID],3.9,3.19,1,
CC[C@@H](C(=O)[C@@H](C)[C@@H](O)[C@H](C)CCc1c([N+](=O)[O-])cc(C)c(O)c1C(=O)O)[C@H]1O[C@](CC)([C@H]2CC[C@](O)(CC)[C@H](C)O2)C[C@@H]1C,2.4,2.46,,0
CC[C@@H](C(=O)[C@@H](C)[C@@H](O)[C@H](C)CCc1c(NC(C)=O)cc(C)c(O)c1C(=O)O)[C@H]1O[C@](CC)([C@H]2CC[C@](O)(CC)[C@H](C)O2)C[C@@H]1C,4.3,1.04,,0
CC[C@@H](C(=O)[C@@H](C)[C@@H](O)[C@H](C)CCc1ccc(C)c(O)c1C(=O)O)[C@H]1O[C@](CC)([C@H]2CC[C@](O)(CC)[C@H](C)O2)C[C@@H]1C [LASALOCID],4.4,2.83,1,
